A short description of data set [1]: Turbidity of crude library peptides (absorbance at 600 nm). Format: physicochemical. As to conditions: Physical stability of peptides. The gist of the method:
(§1)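 Values reflect mean ThT emission (ex 450, em 480 nm) over 72 h at 40° C, read every 10 min after 5 min shaking at 700 rpm, plus a single initial absorbance at 600 nm for turbidity. Peptides were at 267 μM, pH 4.0 acetate or pH 7.0 phosphate (50 mM), with 4 μM ThT.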

Data set [2] can be described thus: Fibril formation of crude library peptides (Thioflavin T). Type of data set: physicochemical. As to conditions: Physical stability of peptides. On the set-up: key: average ThT fluorescence emission at 480 nm (ex 450 nm), raw units. The procedure, abridged:
as §1

The target in another data set is GLP1R (Homo sapiens, UniProt P43220). Put plainly: hGLP1R potency, cAMP accumulation in CHO-K1 cells stably overexpressing hGLP1R. Type of data set: cell-based. Further details: host or cells: CHO-K1. Particulars: for EC50: cAMP accumulation, CHO-K1 cells stably overexpressing hGLP1R, read-out: hGLP1R potency (pEC50) (converted); for SCTR EC50/GLP1R EC50 ratio: selectivity ratio, hSCTR vs hGLP1R, cAMP accumulation in CHO-K1 cells. The procedure, abridged: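 Cells were plated in DPBS with 0.05% casein and 0.5 mM IBMX, then stimulated for 30 min at room temperature with test compound. cAMP was read by TR-FRET after one hour. EC50 came from variable-slope sigmoid nonlinear regression; purified peptides ran as 11-point 3-fold series, n=2.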

A further data set addresses SCTR (Homo sapiens, UniProt P47872). Put plainly: hSCTR potency, cAMP accumulation in CHO-K1 cells stably overexpressing hSCTR. Format: cell-based. Further details: alternatively Euroscreen ES-712-AF; FAST-0161L; host or cells: CHO-K1. Particulars: cAMP accumulation, CHO-K1 cells stably overexpressing hSCTR; read-out: hSCTR potency (pEC50) (converted). The gist of the method:
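Division-arrested CHO-K1 cells stably expressing hSCTR were plated in DPBS with 0.05% casein and 0.5 mM IBMX, then stimulated with test peptide for 30 min at room temperature. cAMP was read by HTRF after one hour. EC50 came from variable-slope sigmoidal nonlinear regression.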

Square brackets hold non-standard residues; d marks the D form. Peptide text beside a SMILES is read from it. Aib = CC(C)(N)C(=O)O

Sequence of SCTR (P47872 23-440): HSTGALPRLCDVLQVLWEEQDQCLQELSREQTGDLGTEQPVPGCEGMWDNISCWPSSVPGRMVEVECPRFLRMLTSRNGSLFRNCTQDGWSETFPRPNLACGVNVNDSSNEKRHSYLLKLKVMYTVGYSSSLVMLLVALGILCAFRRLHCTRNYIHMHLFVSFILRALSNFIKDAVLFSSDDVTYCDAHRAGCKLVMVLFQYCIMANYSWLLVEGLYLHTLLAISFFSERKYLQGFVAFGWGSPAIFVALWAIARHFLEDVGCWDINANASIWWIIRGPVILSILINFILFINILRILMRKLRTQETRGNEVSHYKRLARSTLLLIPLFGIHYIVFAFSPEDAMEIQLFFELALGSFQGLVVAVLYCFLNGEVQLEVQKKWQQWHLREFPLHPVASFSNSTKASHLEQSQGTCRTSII
Sequence of GLP1R (P43220 24-463): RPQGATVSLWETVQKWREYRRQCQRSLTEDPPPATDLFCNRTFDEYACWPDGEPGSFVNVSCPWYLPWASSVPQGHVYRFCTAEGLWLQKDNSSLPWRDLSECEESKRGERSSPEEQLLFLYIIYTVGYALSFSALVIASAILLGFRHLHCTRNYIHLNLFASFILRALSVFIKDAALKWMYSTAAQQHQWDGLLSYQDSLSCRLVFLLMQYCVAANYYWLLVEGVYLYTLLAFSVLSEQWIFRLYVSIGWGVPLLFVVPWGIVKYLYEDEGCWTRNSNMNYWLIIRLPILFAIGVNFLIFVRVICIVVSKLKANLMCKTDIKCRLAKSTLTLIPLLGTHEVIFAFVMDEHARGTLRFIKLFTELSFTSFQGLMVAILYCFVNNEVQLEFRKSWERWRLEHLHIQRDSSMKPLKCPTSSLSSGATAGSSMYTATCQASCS

With `CC[C@H](C)[C@H](NC(=O)[C@H](Cc1ccccc1)NC(=O)[C@H](CCCNC(=N)N)NC(=O)[C@H](CCC(N)=O)NC(=O)[C@H](CC(C)C)NC(=O)[C@H](C)NC(=O)[C@H](C)NC(=O)CNC(=O)[C@H](CCC(=O)O)NC(=O)[C@H](CC(C)C)NC(=O)[C@H](CC(C)C)NC(=O)[C@H](Cc1ccc(O)cc1)NC(=O)[C@H](CO)NC(=O)[C@H](Cc1c[nH]c2ccccc12)NC(=O)[C@H](CC(=O)O)NC(=O)[C@H](CO)NC(=O)[C@@H](NC(=O)[C@H](Cc1ccccc1)NC(=O)[C@@H](NC(=O)CNC(=O)[C@H](CCC(=O)O)NC(=O)C(C)(C)NC(=O)[C@@H](N)Cc1c[nH]cn1)[C@@H](C)O)[C@@H](C)O)C(=O)N[C@@H](CCC(N)=O)C(=O)N[C@@H](Cc1c[nH]c2ccccc12)C(=O)N[C@@H](CC(C)C)C(=O)N[C@H](C(N)=O)C(C)C` [compound 189] (H-H[Aib]EGTFTSDWSYLLEGAALQRFIQWLV-NH2), in data set [1], the “Turbidity (pH 7)” value is recorded as 0.37. Also, the Fibril formation in data set [2] turned out to be 94029. Also, on GLP1R, the EC50 was 0.0158 nM and the “SCTR EC50/GLP1R EC50 ratio” value is on record as 10195. For the same molecule, the EC50 at SCTR is 158 nM.

As for `CC[C@H](C)[C@H](NC(=O)[C@H](Cc1ccccc1)NC(=O)[C@H](CCCNC(=N)N)NC(=O)[C@H](CCC(N)=O)NC(=O)[C@H](CC(C)C)NC(=O)[C@H](C)NC(=O)[C@H](C)NC(=O)CNC(=O)[C@H](CCC(=O)O)NC(=O)[C@H](CC(C)C)NC(=O)[C@H](CC(C)C)NC(=O)[C@H](Cc1ccccc1)NC(=O)[C@H](CO)NC(=O)[C@H](Cc1c[nH]c2ccccc12)NC(=O)[C@H](CC(=O)O)NC(=O)[C@H](CO)NC(=O)[C@@H](NC(=O)[C@H](Cc1ccccc1)NC(=O)[C@@H](NC(=O)CNC(=O)[C@H](CCC(=O)O)NC(=O)C(C)(C)NC(=O)[C@@H](N)Cc1c[nH]cn1)[C@@H](C)O)[C@@H](C)O)C(=O)N[C@@H](CCC(N)=O)C(=O)N[C@@H](Cc1c[nH]c2ccccc12)C(=O)N[C@@H](CC(C)C)C(=O)N[C@H](C(N)=O)C(C)C` [compound 190] (H-H[Aib]EGTFTSDWSFLLEGAALQRFIQWLV-NH2), in data set [1], the “Turbidity (pH 7)” value came out at 0.61. The molecule also registered a Fibril formation in data set [2] of 260000. Further, at GLP1R, the EC50 was 0.0631 nM and the “SCTR EC50/GLP1R EC50 ratio” value amounted to 1844. Further, the EC50 on SCTR is 100 nM.

In the case of `CC[C@H](C)[C@H](NC(=O)[C@H](Cc1ccccc1)NC(=O)[C@H](CCCNC(=N)N)NC(=O)[C@H](CCC(N)=O)NC(=O)[C@H](CC(C)C)NC(=O)[C@H](C)NC(=O)[C@H](C)NC(=O)CNC(=O)[C@H](CCC(=O)O)NC(=O)[C@H](CC(C)C)NC(=O)[C@H](CC(C)C)NC(=O)[C@H](Cc1c[nH]c2ccccc12)NC(=O)[C@H](CO)NC(=O)[C@H](Cc1c[nH]c2ccccc12)NC(=O)[C@H](CC(=O)O)NC(=O)[C@H](CO)NC(=O)[C@@H](NC(=O)[C@H](Cc1ccccc1)NC(=O)[C@@H](NC(=O)CNC(=O)[C@H](CCC(=O)O)NC(=O)C(C)(C)NC(=O)[C@@H](N)Cc1c[nH]cn1)[C@@H](C)O)[C@@H](C)O)C(=O)N[C@@H](CCC(N)=O)C(=O)N[C@@H](Cc1c[nH]c2ccccc12)C(=O)N[C@@H](CC(C)C)C(=O)N[C@H](C(N)=O)C(C)C` [compound 191] (H-H[Aib]EGTFTSDWSWLLEGAALQRFIQWLV-NH2), in data set [1], the “Turbidity (pH 7)” value is 0.61. The same molecule yielded a Fibril formation in data set [2] of 120310. Also, the values for the EC50 at GLP1R and on SCTR were 0.0794 nM and 63.1 nM, respectively. The “SCTR EC50/GLP1R EC50 ratio” value on GLP1R came to 904.

As for `CC[C@H](C)[C@H](NC(=O)[C@H](Cc1ccccc1)NC(=O)[C@H](CCCNC(=N)N)NC(=O)[C@H](CCC(N)=O)NC(=O)[C@H](CC(C)C)NC(=O)[C@H](C)NC(=O)[C@H](C)NC(=O)CNC(=O)[C@H](CCC(=O)O)NC(=O)[C@H](CC(C)C)NC(=O)[C@H](CC(C)C)NC(=O)C(C)(C)NC(=O)[C@H](CO)NC(=O)[C@H](Cc1c[nH]c2ccccc12)NC(=O)[C@H](CC(=O)O)NC(=O)[C@H](CO)NC(=O)[C@@H](NC(=O)[C@H](Cc1ccccc1)NC(=O)[C@@H](NC(=O)CNC(=O)[C@H](CCC(=O)O)NC(=O)C(C)(C)NC(=O)[C@@H](N)Cc1c[nH]cn1)[C@@H](C)O)[C@@H](C)O)C(=O)N[C@@H](CCC(N)=O)C(=O)N[C@@H](Cc1c[nH]c2ccccc12)C(=O)N[C@@H](CC(C)C)C(=O)N[C@H](C(N)=O)C(C)C` [compound 192] (H-H[Aib]EGTFTSDWS[Aib]LLEGAALQRFIQWLV-NH2), in data set [1], the “Turbidity (pH 7)” value turned out to be 0.54. The molecule further came in with a Fibril formation in data set [2] of 29535. Also, at GLP1R, the EC50 was 0.126 nM and the “SCTR EC50/GLP1R EC50 ratio” value turned out to be 383. The EC50 on SCTR was 50.1 nM.

For the molecule `CC[C@H](C)[C@H](NC(=O)[C@H](Cc1ccccc1)NC(=O)[C@H](CCCNC(=N)N)NC(=O)[C@H](CCC(N)=O)NC(=O)[C@H](CC(C)C)NC(=O)[C@H](C)NC(=O)[C@H](C)NC(=O)CNC(=O)[C@H](CCC(=O)O)NC(=O)[C@H](CC(C)C)NC(=O)[C@H](CC(C)C)NC(=O)[C@H](CCC(=O)O)NC(=O)[C@H](CO)NC(=O)[C@H](Cc1c[nH]c2ccccc12)NC(=O)[C@H](CC(=O)O)NC(=O)[C@H](CO)NC(=O)[C@@H](NC(=O)[C@H](Cc1ccccc1)NC(=O)[C@@H](NC(=O)CNC(=O)[C@H](CCC(=O)O)NC(=O)C(C)(C)NC(=O)[C@@H](N)Cc1c[nH]cn1)[C@@H](C)O)[C@@H](C)O)C(=O)N[C@@H](CCC(N)=O)C(=O)N[C@@H](Cc1c[nH]c2ccccc12)C(=O)N[C@@H](CC(C)C)C(=O)N[C@H](C(N)=O)C(C)C` [compound 193] (H-H[Aib]EGTFTSDWSELLEGAALQRFIQWLV-NH2), in data set [1], the “Turbidity (pH 7)” value was found to be 0.13. The molecule further registered a Fibril formation in data set [2] of 26948. For the same molecule, the EC50 was 0.0251 nM at GLP1R and 12.6 nM at SCTR. Further, the “SCTR EC50/GLP1R EC50 ratio” value at GLP1R came out at 558.

As for `CC[C@H](C)[C@H](NC(=O)[C@H](Cc1ccccc1)NC(=O)[C@H](CCCNC(=N)N)NC(=O)[C@H](CCC(N)=O)NC(=O)[C@H](CC(C)C)NC(=O)[C@H](C)NC(=O)[C@H](C)NC(=O)CNC(=O)[C@H](CCC(=O)O)NC(=O)[C@H](CC(C)C)NC(=O)[C@H](CC(C)C)NC(=O)[C@H](CCCNC(=N)N)NC(=O)[C@H](CO)NC(=O)[C@H](Cc1ccc(O)cc1)NC(=O)[C@H](CC(=O)O)NC(=O)[C@H](CO)NC(=O)[C@@H](NC(=O)[C@H](Cc1ccccc1)NC(=O)[C@@H](NC(=O)CNC(=O)[C@H](CCC(=O)O)NC(=O)C(C)(C)NC(=O)[C@@H](N)Cc1c[nH]cn1)[C@@H](C)O)[C@@H](C)O)C(=O)N[C@@H](CCC(N)=O)C(=O)N[C@@H](Cc1c[nH]c2ccccc12)C(=O)N[C@@H](CC(C)C)C(=O)N[C@H](C(N)=O)C(C)C` [compound 194] (H-H[Aib]EGTFTSDYSRLLEGAALQRFIQWLV-NH2), the “Turbidity (pH 7)” value in data set [1] stood at 0.27. For the same molecule, the Fibril formation in data set [2] was 8355. Further, the EC50 was 0.0126 nM on GLP1R and 1.58 nM on SCTR. The “SCTR EC50/GLP1R EC50 ratio” value on GLP1R is on record as 114.

In the case of `CC[C@H](C)[C@H](NC(=O)[C@H](Cc1ccccc1)NC(=O)[C@H](CCCNC(=N)N)NC(=O)[C@H](CCC(N)=O)NC(=O)[C@H](CC(C)C)NC(=O)[C@H](C)NC(=O)[C@H](C)NC(=O)CNC(=O)[C@H](CCC(=O)O)NC(=O)[C@H](CC(C)C)NC(=O)[C@H](CC(C)C)NC(=O)CNC(=O)[C@H](CO)NC(=O)[C@H](Cc1ccc(O)cc1)NC(=O)[C@H](CC(=O)O)NC(=O)[C@H](CO)NC(=O)[C@@H](NC(=O)[C@H](Cc1ccccc1)NC(=O)[C@@H](NC(=O)CNC(=O)[C@H](CCC(=O)O)NC(=O)C(C)(C)NC(=O)[C@@H](N)Cc1c[nH]cn1)[C@@H](C)O)[C@@H](C)O)C(=O)N[C@@H](CCC(N)=O)C(=O)N[C@@H](Cc1c[nH]c2ccccc12)C(=O)N[C@@H](CC(C)C)C(=O)N[C@H](C(N)=O)C(C)C` [compound 195] (H-H[Aib]EGTFTSDYSGLLEGAALQRFIQWLV-NH2), the “Turbidity (pH 7)” value in data set [1] turned out to be 0.25. The molecule further displayed a Fibril formation in data set [2] of 144234. Moreover, on GLP1R, the EC50 was 0.0251 nM and the “SCTR EC50/GLP1R EC50 ratio” value is 419. For the same molecule, the EC50 on SCTR is 10 nM.

(Values after US20260201008A1, “SECRETIN-DERIVED GLP1R SELECTIVE AGONISTS” (GUBRA A/S, priority 2023, published 2026).)
